Experimental data as given in patent US20180099967A1, “FUSED TRICYCLIC HETEROCYCLIC COMPOUNDS AS HIV INTEGRASE INHIBITORS” (MERCK SHARP & DOHME CORP., priority 2015, published 2018).
Read-outs that look alike come from different tables or passages of the source.

System: HIV-1
Experiment: microbe, parasite or virus in culture
Type: cell-based, HIV-1 (H9IIIB or NL4-3 virus)
Experimental: HIV-1 replication was monitored using MT4-gag-GFP clone D3 (hereafter designate MT4-GFP), which are MT-4 cells modified to harbor a GFP reporter gene, the expression of which is dependent on the HIV-1 expressed proteins tat and rev. Productive infection of an MT4-GFP cell with HIV-1 results in GFP expression approximately 24 h post-infection.
MT4-GFP cells were maintained at 37° C./5% CO2/90% relative humidity in RPMI 1640 supplemented with 10% fetal bovine serum, 100 U/ml penicillin/streptomycin, and 400 μg/ml G418 to maintain the reporter gene. For infections, MT4-GFP cells were placed in the same medium lacking G418 and infected overnight with H9IIIB or NL4-3 virus at an approximate multiplicity of infection of 0.01 in the same incubation conditions. Cells were then washed and resuspended in either RPMI 1640 containing no serum at 1.6×10^5 cells/mL (serum free conditions), 10% normal human serum at 1.6×10^5 cells/mL (10% NHS conditions) or in 100% normal human serum at 2×10^5 cells/mL (100% NHS conditions). Compound plates were prepared by dispensing compounds taken up in DMSO into wells of 384 well poly D lysine-coated plates (0.2 μl/well) using an ECHO acoustic dispenser. Each compound was tested in a 10 point serial 3-fold dilution (typical final concentrations: 4.2 μM-0.21 nM). Controls included no inhibitor (DMSO only) and a combination of three antiviral agents (efavirenz, indinavir, and the integrase strand transfer inhibitor L-002254051 at final concentrations of 4 μM each). Cells were added (50 μL/well) to compound plates and the infected cells were maintained at 37° C./5% CO2/90% relative humidity.
Infected cells were quantified at two time points, ˜48 h and ˜72 h post-infection, by counting the number of green cells in each well using an Acumen eX3 scanner. […] Inhibition of R0 is calculated for each well, and IC50 value was determined using non-linear 4-parameter curve fitting.

[1] = Human immunodeficiency virus 1, read-out: WILD TYPE CELL ASSAY Viking IP (0% NHS) (nM)
[2] = Human immunodeficiency virus 1, read-out: WILD TYPE CELL ASSAY Viking IP (100% NHS) (nM)
[3] = read-out: WILD TYPE CELL ASSAY Viking IP (0% NHS)
[4] = read-out: WILD TYPE CELL ASSAY Viking IP (100% NHS)

SMILES	IC50 [1]	IC50 [2]	IC50 [3]	IC50 [4]
CCN1C[C@H]2C[C@@H](N)c3c(C(=O)NCc4ccc(F)cc4F)c(=O)c(O)c(n32)C1=O [Compound 4]	2 nM	158 nM	–	–
CCN1C[C@H]2C[C@H](NC(C)=O)c3c(C(=O)NCc4ccc(F)cc4F)c(=O)c(O)c(n32)C1=O (single isomer, unassigned) [Compound 54]	6 nM	38 nM	–	–
CCN1C[C@@H]2C[C@H](N)c3c(C(=O)NCc4ccc(F)cc4F)c(=O)c(O)c(n32)C1=O [Compound 2]	–	–	12 nM	374 nM
CCN1C[C@H]2C[C@H](NCC3CC3)c3c(C(=O)NCc4ccc(F)cc4F)c(=O)c(O)c(n32)C1=O [Compound 23]	43 nM	1090 nM	–	–
CCN[C@@H]1C[C@H]2CN(CC)C(=O)c3c(O)c(=O)c(C(=O)NCc4ccc(F)cc4F)c1n32 [Compound 9]	1 nM	11 nM	–	–
CCN1C[C@@H]2C[C@@H](NC(C)=O)c3c(C(=O)NCc4ccc(F)cc4F)c(=O)c(O)c(n32)C1=O [Compound 56]	2 nM	14 nM	–	–
CCN1C[C@@H]2CC(NC(=O)C(=O)N(C)C)c3c(C(=O)NCc4ccc(F)cc4F)c(=O)c(O)c(n32)C1=O (stereo partly shown) [Compound 59]	–	–	6 nM	34 nM
CCN[C@H]1C[C@@H]2CN(CC)C(=O)c3c(O)c(=O)c(C(=O)NCc4ccc(F)cc4F)c1n32 [Compound 11]	2 nM	1100 nM	–	–
CCN1C[C@@H]2C[C@@H](NCCCCl)c3c(C(=O)NCc4cccc(Cl)c4F)c(=O)c(O)c(n32)C1=O [Compound 41]	2 nM	22 nM	–	–
CCN1C[C@H]2C[C@@H](NCCOC)c3c(C(=O)NCc4ccc(F)cc4F)c(=O)c(O)c(n32)C1=O [Compound 28]	6 nM	21 nM	–	–
CCN[C@H]1C[C@@H]2CN(CC)C(=O)c3c(O)c(=O)c(C(=O)NCc4c(F)cc(F)cc4F)c1n32 [Compound 13]	7 nM	4020 nM	–	–
CCN1C[C@H]2C[C@H](NCCC(F)(F)F)c3c(C(=O)NCc4ccc(F)cc4F)c(=O)c(O)c(n32)C1=O [Compound 29]	7 nM	228 nM	–	–
CCN1C[C@H]2CC(N3CCCC3)c3c(C(=O)NCc4ccc(F)cc4F)c(=O)c(O)c(n32)C1=O (single isomer, unassigned) [Compound 36]	–	–	6 nM	1190 nM
CCCN1CC2CC(NS(C)(=O)=O)c3c(C(=O)NCc4ccc(F)cc4F)c(=O)c(O)c(n32)C1=O (single isomer, unassigned) [Compound 70]	–	–	20 nM	1840 nM
CCN1C[C@H]2C[C@H](NC)c3c(C(=O)NCc4ccc(F)cc4F)c(=O)c(O)c(n32)C1=O [Compound 7]	2 nM	3420 nM	–	–
CCN1C[C@H]2C[C@H](NS(C)(=O)=O)c3c(C(=O)NCc4ccc(F)c(F)c4F)c(=O)c(O)c(n32)C1=O [Compound 49]	11 nM	12500 nM	–	–
CCNC1CC2CN(CCOC)C(=O)c3c(O)c(=O)c(C(=O)NCc4ccc(F)cc4F)c1n32 (single isomer, unassigned) [Compound 66]	–	–	12 nM	180 nM
